Measurements reported in ChEMBL document CHEMBL3124838, “Discovery of 6-aryl-azabenzimidazoles that inhibit the TBK1/IKK-ε kinases” (Bioorg Med Chem Lett, 2014).

Legend:
[1] = target: Ribosomal protein S6 kinase alpha-1 (Homo sapiens) (UniProt Q15418); test: Inhibition of human RSK1 assessed as residual activity at 1 uM relative to control
[2] = target: Serine/threonine-protein kinase PAK 5 (Homo sapiens) (UniProt Q9P286); test: Inhibition of human PAK5 assessed as residual activity at 1 uM relative to control
Serine/threonine-protein kinase PAK 5 (Homo sapiens), sequence (Q9P286 whole entry, looked up): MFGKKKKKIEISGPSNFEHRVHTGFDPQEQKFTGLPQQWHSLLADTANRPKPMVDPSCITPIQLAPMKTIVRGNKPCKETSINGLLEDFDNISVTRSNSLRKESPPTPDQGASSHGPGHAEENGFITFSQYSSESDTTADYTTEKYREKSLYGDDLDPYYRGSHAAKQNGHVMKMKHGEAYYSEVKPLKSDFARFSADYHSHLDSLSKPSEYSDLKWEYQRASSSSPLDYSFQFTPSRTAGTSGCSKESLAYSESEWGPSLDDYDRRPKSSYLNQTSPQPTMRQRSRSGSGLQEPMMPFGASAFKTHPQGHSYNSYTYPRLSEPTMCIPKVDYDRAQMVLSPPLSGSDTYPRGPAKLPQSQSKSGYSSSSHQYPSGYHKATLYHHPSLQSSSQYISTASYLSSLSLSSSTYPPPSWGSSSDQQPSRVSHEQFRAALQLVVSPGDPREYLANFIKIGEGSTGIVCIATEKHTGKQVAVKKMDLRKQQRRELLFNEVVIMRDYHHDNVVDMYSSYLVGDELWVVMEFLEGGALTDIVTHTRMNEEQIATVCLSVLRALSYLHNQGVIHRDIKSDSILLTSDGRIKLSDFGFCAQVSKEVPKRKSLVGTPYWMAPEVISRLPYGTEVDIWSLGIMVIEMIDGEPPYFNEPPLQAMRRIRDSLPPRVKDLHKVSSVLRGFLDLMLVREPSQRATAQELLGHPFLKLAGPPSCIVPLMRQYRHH

[3] = target: T1, MAP kinase-activated protein kinase 5 (Homo sapiens) (UniProt Q8IW41); test: Inhibition of human PRAK assessed as residual activity at 1 uM relative to control
T1 sequence (whole entry): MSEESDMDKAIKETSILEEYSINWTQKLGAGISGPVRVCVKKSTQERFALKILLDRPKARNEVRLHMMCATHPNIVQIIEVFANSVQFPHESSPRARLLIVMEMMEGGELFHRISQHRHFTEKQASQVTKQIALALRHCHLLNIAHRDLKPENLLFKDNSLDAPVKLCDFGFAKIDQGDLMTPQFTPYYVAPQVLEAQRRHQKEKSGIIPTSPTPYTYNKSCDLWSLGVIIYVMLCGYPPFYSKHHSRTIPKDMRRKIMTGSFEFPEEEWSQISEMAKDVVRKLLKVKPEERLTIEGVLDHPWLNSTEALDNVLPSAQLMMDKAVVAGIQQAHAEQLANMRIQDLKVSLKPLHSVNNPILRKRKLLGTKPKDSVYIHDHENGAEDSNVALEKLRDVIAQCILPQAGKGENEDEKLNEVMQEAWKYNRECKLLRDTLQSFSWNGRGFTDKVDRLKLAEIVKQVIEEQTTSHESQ

[4] = target: T2, Eukaryotic elongation factor 2 kinase (Homo sapiens) (UniProt O00418); test: Inhibition of human eEF-2K assessed as residual activity at 1 uM relative to control
T2 sequence (whole entry): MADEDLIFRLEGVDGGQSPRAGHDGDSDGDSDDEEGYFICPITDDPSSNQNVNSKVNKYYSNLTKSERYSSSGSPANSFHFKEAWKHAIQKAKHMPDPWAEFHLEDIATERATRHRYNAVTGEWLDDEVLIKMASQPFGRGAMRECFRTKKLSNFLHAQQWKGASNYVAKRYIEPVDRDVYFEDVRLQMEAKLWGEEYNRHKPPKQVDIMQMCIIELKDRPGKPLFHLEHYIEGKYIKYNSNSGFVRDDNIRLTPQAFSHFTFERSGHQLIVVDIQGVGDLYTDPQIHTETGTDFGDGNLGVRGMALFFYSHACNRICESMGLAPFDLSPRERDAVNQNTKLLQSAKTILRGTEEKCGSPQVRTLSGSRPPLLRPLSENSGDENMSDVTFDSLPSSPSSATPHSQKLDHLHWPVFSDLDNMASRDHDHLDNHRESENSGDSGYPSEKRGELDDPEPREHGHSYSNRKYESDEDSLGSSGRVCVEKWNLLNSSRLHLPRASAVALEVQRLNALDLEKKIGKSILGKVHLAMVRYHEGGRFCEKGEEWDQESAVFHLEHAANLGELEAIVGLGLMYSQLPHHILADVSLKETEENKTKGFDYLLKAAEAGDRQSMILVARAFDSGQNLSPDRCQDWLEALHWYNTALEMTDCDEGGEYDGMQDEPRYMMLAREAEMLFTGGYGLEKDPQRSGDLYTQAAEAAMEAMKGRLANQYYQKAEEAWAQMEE

[5] = target: Calcium/calmodulin-dependent protein kinase type II subunit beta (Homo sapiens) (UniProt Q13554); test: Inhibition of human CaMK2beta assessed as residual activity at 1 uM relative to control
Calcium/calmodulin-dependent protein kinase type II subunit beta (Homo sapiens), sequence (Q13554 whole entry): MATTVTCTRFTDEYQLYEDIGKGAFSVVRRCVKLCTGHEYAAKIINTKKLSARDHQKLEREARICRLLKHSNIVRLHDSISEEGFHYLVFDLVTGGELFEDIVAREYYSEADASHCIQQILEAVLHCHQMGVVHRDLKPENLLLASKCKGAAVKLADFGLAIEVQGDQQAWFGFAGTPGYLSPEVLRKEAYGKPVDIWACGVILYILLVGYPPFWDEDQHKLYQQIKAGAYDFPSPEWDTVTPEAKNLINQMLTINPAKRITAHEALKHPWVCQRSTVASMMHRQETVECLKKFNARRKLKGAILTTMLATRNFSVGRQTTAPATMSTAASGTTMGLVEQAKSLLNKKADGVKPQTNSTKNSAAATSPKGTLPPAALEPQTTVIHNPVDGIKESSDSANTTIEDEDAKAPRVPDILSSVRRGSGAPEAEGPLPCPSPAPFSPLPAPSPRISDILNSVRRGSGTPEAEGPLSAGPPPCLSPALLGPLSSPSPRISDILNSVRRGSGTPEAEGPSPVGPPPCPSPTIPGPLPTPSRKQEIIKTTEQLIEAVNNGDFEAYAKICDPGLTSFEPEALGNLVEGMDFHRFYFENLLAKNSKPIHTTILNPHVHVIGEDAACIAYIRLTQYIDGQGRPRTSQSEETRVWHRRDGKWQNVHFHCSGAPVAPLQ

[6] = target: T3, cGMP-dependent protein kinase 1 (Homo sapiens) (UniProt Q13976); test: Inhibition of human PKG1alpha assessed as residual activity at 1 uM relative to control
T3 sequence (whole entry): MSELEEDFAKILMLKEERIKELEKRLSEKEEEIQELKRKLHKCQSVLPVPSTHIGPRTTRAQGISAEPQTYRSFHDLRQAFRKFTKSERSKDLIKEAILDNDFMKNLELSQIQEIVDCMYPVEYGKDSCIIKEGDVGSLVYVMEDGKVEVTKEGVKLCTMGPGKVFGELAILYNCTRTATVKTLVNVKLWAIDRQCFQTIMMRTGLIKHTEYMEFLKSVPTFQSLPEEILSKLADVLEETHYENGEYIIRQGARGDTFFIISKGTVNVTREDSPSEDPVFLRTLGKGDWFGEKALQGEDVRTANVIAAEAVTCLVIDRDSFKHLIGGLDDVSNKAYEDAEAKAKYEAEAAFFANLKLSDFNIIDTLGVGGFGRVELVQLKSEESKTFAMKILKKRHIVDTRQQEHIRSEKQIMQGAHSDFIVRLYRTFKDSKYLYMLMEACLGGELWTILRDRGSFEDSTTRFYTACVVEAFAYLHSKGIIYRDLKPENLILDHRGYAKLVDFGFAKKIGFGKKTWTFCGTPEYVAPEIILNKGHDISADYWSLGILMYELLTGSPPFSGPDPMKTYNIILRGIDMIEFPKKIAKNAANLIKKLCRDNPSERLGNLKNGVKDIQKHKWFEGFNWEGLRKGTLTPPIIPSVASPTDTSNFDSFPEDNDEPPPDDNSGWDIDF

[7] = target: Tyrosine-protein kinase ABL1 (Homo sapiens) (UniProt P00519); test: Inhibition of human ABL assessed as residual activity at 1 uM relative to control
[8] = target: Tyrosine-protein kinase Fer (Homo sapiens) (UniProt P16591); test: Inhibition of human FER assessed as residual activity at 1 uM relative to control
Tyrosine-protein kinase Fer (Homo sapiens), sequence (P16591 whole entry, looked up): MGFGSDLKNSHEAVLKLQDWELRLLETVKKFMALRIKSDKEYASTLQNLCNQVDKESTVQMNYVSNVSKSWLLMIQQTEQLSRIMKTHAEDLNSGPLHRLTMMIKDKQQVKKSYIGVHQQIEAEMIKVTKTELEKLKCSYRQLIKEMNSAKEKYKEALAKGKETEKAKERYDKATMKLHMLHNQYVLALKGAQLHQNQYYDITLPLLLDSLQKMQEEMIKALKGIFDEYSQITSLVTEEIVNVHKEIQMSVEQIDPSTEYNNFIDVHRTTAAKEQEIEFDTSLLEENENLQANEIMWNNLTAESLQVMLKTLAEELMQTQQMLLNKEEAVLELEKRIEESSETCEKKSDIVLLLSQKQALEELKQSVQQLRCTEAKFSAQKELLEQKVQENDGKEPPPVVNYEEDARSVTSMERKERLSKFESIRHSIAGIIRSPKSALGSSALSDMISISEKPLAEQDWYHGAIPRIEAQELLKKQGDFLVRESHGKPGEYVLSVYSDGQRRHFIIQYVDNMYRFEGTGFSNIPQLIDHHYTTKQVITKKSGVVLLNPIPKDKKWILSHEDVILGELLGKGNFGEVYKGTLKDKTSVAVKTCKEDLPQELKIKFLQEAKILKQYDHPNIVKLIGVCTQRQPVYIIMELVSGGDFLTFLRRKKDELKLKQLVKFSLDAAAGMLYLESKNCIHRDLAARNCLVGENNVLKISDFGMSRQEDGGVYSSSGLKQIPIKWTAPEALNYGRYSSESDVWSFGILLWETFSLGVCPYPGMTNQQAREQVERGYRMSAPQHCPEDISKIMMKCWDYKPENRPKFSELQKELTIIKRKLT

[9] = target: Serine/threonine-protein kinase MARK2 (Homo sapiens) (UniProt Q7KZI7); test: Inhibition of human PAR-1Balpha assessed as residual activity at 1 uM relative to control
Serine/threonine-protein kinase MARK2 (Homo sapiens), sequence (Q7KZI7 whole entry): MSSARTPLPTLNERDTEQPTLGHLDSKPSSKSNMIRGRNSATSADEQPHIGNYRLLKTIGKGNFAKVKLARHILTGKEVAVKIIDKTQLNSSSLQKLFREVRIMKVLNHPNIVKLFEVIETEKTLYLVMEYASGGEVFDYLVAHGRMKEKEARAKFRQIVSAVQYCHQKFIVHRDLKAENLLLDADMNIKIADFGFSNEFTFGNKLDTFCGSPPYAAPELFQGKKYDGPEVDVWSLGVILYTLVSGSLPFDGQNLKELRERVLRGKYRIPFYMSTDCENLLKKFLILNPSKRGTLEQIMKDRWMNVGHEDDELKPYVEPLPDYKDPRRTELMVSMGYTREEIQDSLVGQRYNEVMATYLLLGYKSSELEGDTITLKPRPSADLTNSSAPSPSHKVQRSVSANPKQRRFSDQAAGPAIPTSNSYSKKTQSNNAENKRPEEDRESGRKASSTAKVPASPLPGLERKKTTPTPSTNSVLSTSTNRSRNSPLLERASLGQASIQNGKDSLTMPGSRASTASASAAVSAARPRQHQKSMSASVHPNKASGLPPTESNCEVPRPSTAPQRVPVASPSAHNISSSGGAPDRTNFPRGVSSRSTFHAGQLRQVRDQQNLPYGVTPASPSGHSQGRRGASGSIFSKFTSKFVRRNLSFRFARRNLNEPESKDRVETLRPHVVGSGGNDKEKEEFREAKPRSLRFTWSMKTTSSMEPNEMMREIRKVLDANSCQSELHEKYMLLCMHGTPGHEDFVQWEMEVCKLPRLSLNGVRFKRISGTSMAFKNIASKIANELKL

Aurora kinase B = Aurora kinase B (Homo sapiens, UniProt Q96GD4); test: Inhibition of aurora B (unknown origin)
Aurora kinase B, sequence (Q96GD4 whole entry): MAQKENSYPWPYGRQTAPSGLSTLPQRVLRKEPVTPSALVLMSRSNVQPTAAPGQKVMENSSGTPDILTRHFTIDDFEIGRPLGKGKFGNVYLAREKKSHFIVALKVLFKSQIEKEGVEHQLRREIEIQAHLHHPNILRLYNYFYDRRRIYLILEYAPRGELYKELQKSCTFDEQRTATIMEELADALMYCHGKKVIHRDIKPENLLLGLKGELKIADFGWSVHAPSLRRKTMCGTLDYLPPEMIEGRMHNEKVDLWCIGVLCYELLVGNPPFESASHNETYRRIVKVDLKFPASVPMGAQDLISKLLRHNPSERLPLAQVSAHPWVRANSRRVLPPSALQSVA

[10] = target: Phosphatidylinositol 4-phosphate 5-kinase type-1 gamma (Homo sapiens) (UniProt O60331); test: Inhibition of human PIP5K1gamma assessed as residual activity at 1 uM relative to control
Phosphatidylinositol 4-phosphate 5-kinase type-1 gamma (Homo sapiens), sequence (O60331 whole entry): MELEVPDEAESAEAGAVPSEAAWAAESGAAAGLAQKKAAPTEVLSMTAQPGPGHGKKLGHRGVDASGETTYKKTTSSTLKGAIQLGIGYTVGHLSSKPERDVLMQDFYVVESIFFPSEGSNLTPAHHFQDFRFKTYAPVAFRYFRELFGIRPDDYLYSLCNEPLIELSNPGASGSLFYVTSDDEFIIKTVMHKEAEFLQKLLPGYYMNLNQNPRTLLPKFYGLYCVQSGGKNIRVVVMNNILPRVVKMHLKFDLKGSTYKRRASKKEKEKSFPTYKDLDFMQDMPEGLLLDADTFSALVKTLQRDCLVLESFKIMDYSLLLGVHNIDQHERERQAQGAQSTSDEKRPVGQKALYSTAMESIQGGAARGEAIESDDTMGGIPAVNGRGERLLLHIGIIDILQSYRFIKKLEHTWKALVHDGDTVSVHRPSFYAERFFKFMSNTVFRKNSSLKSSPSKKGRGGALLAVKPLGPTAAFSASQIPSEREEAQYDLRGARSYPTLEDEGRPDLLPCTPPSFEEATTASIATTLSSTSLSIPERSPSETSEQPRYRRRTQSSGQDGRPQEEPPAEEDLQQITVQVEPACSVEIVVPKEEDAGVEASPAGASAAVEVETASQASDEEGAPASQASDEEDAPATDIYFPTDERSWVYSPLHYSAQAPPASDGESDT

Ribosomal protein S6 kinase alpha-1 (Homo sapiens), sequence (Q15418 whole entry): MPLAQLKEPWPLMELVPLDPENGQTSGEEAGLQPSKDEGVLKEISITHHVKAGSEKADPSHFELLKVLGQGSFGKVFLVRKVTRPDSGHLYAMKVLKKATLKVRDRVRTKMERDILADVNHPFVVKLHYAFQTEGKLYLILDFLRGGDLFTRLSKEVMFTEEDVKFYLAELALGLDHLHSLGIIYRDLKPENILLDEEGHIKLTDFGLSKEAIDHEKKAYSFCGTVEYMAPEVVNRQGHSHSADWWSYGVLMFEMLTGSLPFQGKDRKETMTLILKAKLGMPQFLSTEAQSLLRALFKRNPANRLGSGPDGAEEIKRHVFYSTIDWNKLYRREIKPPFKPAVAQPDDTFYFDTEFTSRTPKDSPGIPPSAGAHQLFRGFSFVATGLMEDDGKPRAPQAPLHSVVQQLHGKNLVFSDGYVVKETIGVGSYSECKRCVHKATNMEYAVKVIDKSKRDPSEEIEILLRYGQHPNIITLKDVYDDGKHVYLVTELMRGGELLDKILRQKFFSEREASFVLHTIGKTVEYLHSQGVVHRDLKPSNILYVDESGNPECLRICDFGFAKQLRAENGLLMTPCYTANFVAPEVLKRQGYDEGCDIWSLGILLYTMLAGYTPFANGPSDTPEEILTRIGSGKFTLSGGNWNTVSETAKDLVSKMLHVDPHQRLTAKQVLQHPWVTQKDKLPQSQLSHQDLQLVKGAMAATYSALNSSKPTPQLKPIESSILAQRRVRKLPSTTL

Row | Activity [1] [%] | Activity [2] [%] | Activity [3] [%] | Activity [4] [%] | Activity [5] [%] | Activity [6] [%] | Activity [7] [%] | Activity [8] [%] | Activity [9] [%] | IC50 (Aurora kinase B) [µM] | Activity [10] [%] | Compound
1 | 63 | 97 | 112 | 102 | 96 | 69 | -2 | 111 | 52 | 5.92 | 88 | COc1ccc(-c2nc3cc(-c4csc(C(=O)NCC(C)C)c4)cnc3[nH]2)cc1
2 | 76 | 86 | 102 | 101 | 97 | 67 | 10 | 104 | 54 | 18.8 | 93 | COc1ccc(-c2nc3cc(-c4csc(C(=O)NCCC(C)C)c4)cnc3[nH]2)cc1
3 | 73 | 94 | 115 | 91 | 98 | 68 | 8 | 100 | 67 | 1.44 | 86 | COc1ccc(-c2nc3cc(-c4csc(C(=O)NCC(C)(C)C)c4)cnc3[nH]2)cc1
